Measurements reported in ChEMBL document CHEMBL1155271, “Synthesis, crystal structures and antibacterial activity studies of aza-derivatives of phytoalexin from cotton plant--gossypol” (2009).
≈ marks a conversion by molar mass, not a printed value. Calls of active or inactive are those of the source. No cut-off for these calls is given here.

How the values were obtained:
Assay type in all cases: functional
Staphylococcus aureus [1] = assay: Antimicrobial activity against methicillin-resistant Staphylococcus aureus 143/6 by twofold dilution technique
Enterococcus hirae [2] = assay: Antimicrobial activity against Enterococcus hirae ATCC 10541 at 400 ug after 18 hrs by disk diffusion method; conditions: ATCC 10541, 18 h, read-out: DIZ
Staphylococcus aureus [3] = assay: Antimicrobial activity against Methicillin susceptible Staphylococcus aureus 213/7 by twofold dilution technique
Staphylococcus aureus [4] = assay: Antimicrobial activity against methicillin-resistant Staphylococcus aureus 236/7 by twofold dilution technique
Staphylococcus aureus [5] = assay: Antimicrobial activity against Methicillin susceptible Staphylococcus aureus 237/7 by twofold dilution technique
Staphylococcus aureus [6] = assay: Antimicrobial activity against methicillin-resistant Staphylococcus aureus 144/6 by twofold dilution technique
Bacillus cereus [7] = assay: Antimicrobial activity against Bacillus cereus ATCC 11778 after 18 hrs by twofold dilution technique; conditions: ATCC 11778, 18 h
Staphylococcus aureus [8] = assay: Antimicrobial activity against Staphylococcus aureus ATCC 29213 at 400 ug after 18 hrs by disk diffusion method; conditions: ATCC 29213, 18 h, read-out: DIZ
Micrococcus luteus [9] = assay: Antimicrobial activity against Micrococcus luteus ATCC 10240 by twofold dilution technique
Bacillus cereus [10] = assay: Antimicrobial activity against Bacillus cereus ATCC 11778 at 400 ug after 18 hrs by disk diffusion method; conditions: ATCC 11778, 18 h, read-out: DIZ
Enterococcus hirae [11] = assay: Antimicrobial activity against Enterococcus hirae ATCC 10541 after 18 hrs by twofold dilution technique; conditions: ATCC 10541, 18 h
Staphylococcus aureus [12] = assay: Antimicrobial activity against Staphylococcus aureus NCTC 4163 after 18 hrs by twofold dilution technique; conditions: NCTC 4163, 18 h
Staphylococcus aureus [13] = assay: Antimicrobial activity against Methicillin susceptible Staphylococcus aureus 239/7 by twofold dilution technique
Bacillus subtilis [14] = assay: Antimicrobial activity against Bacillus subtilis ATCC 6633 after 18 hrs by twofold dilution technique; conditions: ATCC 6633, 18 h
Bacillus subtilis [15] = assay: Antimicrobial activity against Bacillus subtilis ATCC 6633 at 400 ug after 18 hrs by disk diffusion method; conditions: ATCC 6633, 18 h, read-out: DIZ
Staphylococcus aureus [16] = assay: Antimicrobial activity against methicillin-resistant Staphylococcus aureus 141/6 by twofold dilution technique
Micrococcus luteus [17] = assay: Antimicrobial activity against Micrococcus luteus ATCC 9341 after 18 hrs by twofold dilution technique; conditions: ATCC 9341, 18 h
Staphylococcus aureus [18] = assay: Antimicrobial activity against Methicillin susceptible Staphylococcus aureus 238/7 by twofold dilution technique
Staphylococcus aureus [19] = assay: Antimicrobial activity against Staphylococcus aureus ATCC 6538 at 400 ug after 18 hrs by disk diffusion method; conditions: ATCC 6538, 18 h, read-out: DIZ
Staphylococcus aureus [20] = assay: Antimicrobial activity against Staphylococcus aureus ATCC 29213 after 18 hrs by twofold dilution technique; conditions: ATCC 29213, 18 h
Staphylococcus aureus [21] = assay: Antimicrobial activity against methicillin-resistant Staphylococcus aureus 136/6 by twofold dilution technique
Staphylococcus aureus [22] = assay: Antimicrobial activity against methicillin-resistant Staphylococcus aureus 146/6 by twofold dilution technique
Micrococcus luteus [23] = assay: Antimicrobial activity against Micrococcus luteus ATCC 10240 at 400 ug after 18 hrs by disk diffusion method; conditions: ATCC 10240, 18 h, read-out: DIZ
[24] = test system: Staphylococcus epidermidis; assay: Antimicrobial activity against Staphylococcus epidermidis ATCC 12228 at 400 ug after 18 hrs by disk diffusion method; conditions: ATCC 12228, 18 h, read-out: DIZ
Micrococcus luteus [25] = assay: Antimicrobial activity against Micrococcus luteus ATCC 9341 at 400 ug after 18 hrs by disk diffusion method
Staphylococcus aureus [26] = assay: Antimicrobial activity against Methicillin susceptible Staphylococcus aureus 207/7 by twofold dilution technique
Staphylococcus aureus [27] = assay: Antimicrobial activity against methicillin-resistant Staphylococcus aureus 218/7 by twofold dilution technique
Staphylococcus aureus [28] = assay: Antimicrobial activity against Methicillin susceptible Staphylococcus aureus 212/7 by twofold dilution technique
Staphylococcus aureus [29] = assay: Antimicrobial activity against Methicillin susceptible Staphylococcus aureus 208/7 by twofold dilution technique
Staphylococcus aureus [30] = assay: Antimicrobial activity against Methicillin susceptible Staphylococcus aureus 243/7 by twofold dilution technique
[31] = test system: Staphylococcus epidermidis; assay: Antimicrobial activity against Staphylococcus epidermidis ATCC 12228 by twofold dilution technique
Staphylococcus aureus [32] = assay: Antimicrobial activity against Methicillin susceptible Staphylococcus aureus 206/7 by twofold dilution technique
Staphylococcus aureus [33] = assay: Antimicrobial activity against Staphylococcus aureus ATCC 25923 at 400 ug after 18 hrs by disk diffusion method; conditions: ATCC 25923, 18 h, read-out: DIZ
Staphylococcus aureus [34] = assay: Antimicrobial activity against Methicillin susceptible Staphylococcus aureus 242/7 by twofold dilution technique
Staphylococcus aureus [35] = assay: Antimicrobial activity against methicillin-resistant Staphylococcus aureus 217/7 by twofold dilution technique
Staphylococcus aureus [36] = assay: Antimicrobial activity against methicillin-resistant Staphylococcus aureus 140/6 by twofold dilution technique
Staphylococcus aureus [37] = assay: Antimicrobial activity against Staphylococcus aureus ATCC 25923 after 18 hrs by twofold dilution technique; conditions: ATCC 25923, 18 h
Staphylococcus aureus [38] = assay: Antimicrobial activity against Staphylococcus aureus NCTC 4163 at 400 ug after 18 hrs by disk diffusion method; conditions: NCTC 4163, 18 h, read-out: DIZ
Staphylococcus aureus [39] = assay: Antimicrobial activity against Staphylococcus aureus ATCC 6538 after 18 hrs by twofold dilution technique; conditions: ATCC 6538, 18 h
Staphylococcus aureus [40] = assay: Antimicrobial activity against methicillin-resistant Staphylococcus aureus 200/7 by twofold dilution technique

Compound	MIC (Staphylococcus aureus [1]) [µg/mL]	zone of inhibition at 400 µg/disc (Enterococcus hirae [2]) [mm]	MIC (Staphylococcus aureus [3]) [µg/mL]	MIC (Staphylococcus aureus [4]) [µg/mL]	MIC (Staphylococcus aureus [5]) [µg/mL]	MIC (Staphylococcus aureus [6]) [µg/mL]	MIC (Bacillus cereus [7]) [µg/mL]	zone of inhibition at 400 µg/disc (Staphylococcus aureus [8]) [mm]	MIC (Micrococcus luteus [9]) [µg/mL]	zone of inhibition at 400 µg/disc (Bacillus cereus [10]) [mm]	MIC (Enterococcus hirae [11]) [µg/mL]	MIC (Staphylococcus aureus [12]) [µg/mL]	MIC (Staphylococcus aureus [13]) [µg/mL]	MIC (Bacillus subtilis [14]) [µg/mL]	zone of inhibition at 400 µg/disc (Bacillus subtilis [15]) [mm]	MIC (Staphylococcus aureus [16]) [µg/mL]	MIC (Micrococcus luteus [17]) [µg/mL]	MIC (Staphylococcus aureus [18]) [µg/mL]	zone of inhibition at 400 µg/disc (Staphylococcus aureus [19]) [mm]	MIC (Staphylococcus aureus [20]) [µg/mL]	further results
Cc1cc2c(c(O)c1-c1c(C)cc3c(c1O)/C(=C/NCCc1cccs1)C(=O)C(O)=C3C(C)C)/C(=C/NCCc1cccs1)C(=O)C(O)=C2C(C)C	50 (≈ 67.8 µM)	14	25 (≈ 33.9 µM)	50 (≈ 67.8 µM)	50 (≈ 67.8 µM)	50 (≈ 67.8 µM)	50 (≈ 67.8 µM)	18	50 (≈ 67.8 µM)	15	50 (≈ 67.8 µM)	50 (≈ 67.8 µM)	50 (≈ 67.8 µM)	100 (≈ 136 µM)	16	50 (≈ 67.8 µM)	50 (≈ 67.8 µM)	50 (≈ 67.8 µM)	17	25 (≈ 33.9 µM)	MIC (Staphylococcus aureus [21]): 50 µg/mL (≈ 67.8 µM); MIC (Staphylococcus aureus [22]): 50 µg/mL (≈ 67.8 µM); zone of inhibition at 400 µg/disc (Micrococcus luteus [23]): 19 mm; zone of inhibition at 400 µg/disc [24]: 21 mm; zone of inhibition at 400 µg/disc (Micrococcus luteus [25]; ATCC 9341, 18 h, read-out: DIZ): 12 mm; MIC (Staphylococcus aureus [26]): 50 µg/mL (≈ 67.8 µM); MIC (Staphylococcus aureus [27]): 50 µg/mL (≈ 67.8 µM); MIC (Staphylococcus aureus [28]): 25 µg/mL (≈ 33.9 µM); MIC (Staphylococcus aureus [29]): 50 µg/mL (≈ 67.8 µM); MIC (Staphylococcus aureus [30]): 50 µg/mL (≈ 67.8 µM); MIC [31]: 100 µg/mL (≈ 136 µM); MIC (Staphylococcus aureus [32]): 25 µg/mL (≈ 33.9 µM); zone of inhibition at 400 µg/disc (Staphylococcus aureus [33]): 18 mm; MIC (Staphylococcus aureus [34]): 12.5 µg/mL (≈ 17 µM); MIC (Staphylococcus aureus [35]): 100 µg/mL (≈ 136 µM); MIC (Staphylococcus aureus [36]): 50 µg/mL (≈ 67.8 µM); MIC (Staphylococcus aureus [37]): 25 µg/mL (≈ 33.9 µM); zone of inhibition at 400 µg/disc (Staphylococcus aureus [38]): 18 mm; MIC (Staphylococcus aureus [39]): 25 µg/mL (≈ 33.9 µM); MIC (Staphylococcus aureus [40]): 50 µg/mL (≈ 67.8 µM)
Cc1cc2c(c(O)c1-c1c(C)cc3c(c1O)/C(=C/NCCC(=O)N[C@@H](Cc1c[nH]cn1)C(=O)O)C(=O)C(O)=C3C(C)C)/C(=C/NCCC(=O)N[C@@H](Cc1c[nH]cn1)C(=O)O)C(=O)C(O)=C2C(C)C	100 (≈ 107 µM)	12	100 (≈ 107 µM)	50 (≈ 53.5 µM)	50 (≈ 53.5 µM)	100 (≈ 107 µM)	50 (≈ 53.5 µM)	13	50 (≈ 53.5 µM)	14	50 (≈ 53.5 µM)	50 (≈ 53.5 µM)	100 (≈ 107 µM)	200 (≈ 214 µM)	13	100 (≈ 107 µM)	50 (≈ 53.5 µM)	50 (≈ 53.5 µM)	15	25 (≈ 26.7 µM)	MIC (Staphylococcus aureus [21]): 25 µg/mL (≈ 26.7 µM); MIC (Staphylococcus aureus [22]): 50 µg/mL (≈ 53.5 µM); zone of inhibition at 400 µg/disc (Micrococcus luteus [23]): 16 mm; zone of inhibition at 400 µg/disc [24]: 14 mm; diameter of the inhibition zone (DIZ) (Micrococcus luteus [25]): inactive; MIC (Staphylococcus aureus [26]): 100 µg/mL (≈ 107 µM); MIC (Staphylococcus aureus [27]): 100 µg/mL (≈ 107 µM); MIC (Staphylococcus aureus [28]): 100 µg/mL (≈ 107 µM); MIC (Staphylococcus aureus [29]): 100 µg/mL (≈ 107 µM); MIC (Staphylococcus aureus [30]): 100 µg/mL (≈ 107 µM); MIC [31]: 200 µg/mL (≈ 214 µM); MIC (Staphylococcus aureus [32]): 50 µg/mL (≈ 53.5 µM); zone of inhibition at 400 µg/disc (Staphylococcus aureus [33]): 15 mm; MIC (Staphylococcus aureus [34]): 25 µg/mL (≈ 26.7 µM); MIC (Staphylococcus aureus [35]): 100 µg/mL (≈ 107 µM); MIC (Staphylococcus aureus [36]): 100 µg/mL (≈ 107 µM); MIC (Staphylococcus aureus [37]): 50 µg/mL (≈ 53.5 µM); zone of inhibition at 400 µg/disc (Staphylococcus aureus [38]): 15 mm; MIC (Staphylococcus aureus [39]): 25 µg/mL (≈ 26.7 µM); MIC (Staphylococcus aureus [40]): 100 µg/mL (≈ 107 µM)
